Measurements as given in publication PMC7176092, “Development of the first in vivo GPR17 ligand through an iterative drug discovery pipeline: A novel disease-modifying strategy for multiple sclerosis” (PLoS ONE, 2020).
Several values for one entry are separate records, joined by “and”; a condition that tells them apart may be missing. Equal values may be shown once. Read-outs that look alike come from different tables or passages of the source.

Key:
ADR1B = target: T1, ADR1B (Homo sapiens, UniProt P35368); assay: Binding assay ADR1B; conditions: 100 nM
T1 construct: Eurofins Cerep (external service)
T1 sequence (P35368 1-520): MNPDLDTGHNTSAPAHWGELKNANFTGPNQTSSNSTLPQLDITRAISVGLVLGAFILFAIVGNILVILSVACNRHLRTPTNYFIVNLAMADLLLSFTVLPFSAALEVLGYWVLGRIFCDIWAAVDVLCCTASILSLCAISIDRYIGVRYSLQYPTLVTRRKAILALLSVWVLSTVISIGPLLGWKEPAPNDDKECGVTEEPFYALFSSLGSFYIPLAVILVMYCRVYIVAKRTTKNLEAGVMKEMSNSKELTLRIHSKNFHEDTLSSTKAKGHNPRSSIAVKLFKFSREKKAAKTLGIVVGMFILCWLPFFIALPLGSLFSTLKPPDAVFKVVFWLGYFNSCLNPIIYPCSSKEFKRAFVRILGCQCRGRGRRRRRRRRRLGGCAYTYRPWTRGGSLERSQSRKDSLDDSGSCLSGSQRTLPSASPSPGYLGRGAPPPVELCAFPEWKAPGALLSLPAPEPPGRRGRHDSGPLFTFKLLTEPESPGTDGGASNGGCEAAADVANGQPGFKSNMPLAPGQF

ADR3 = target: T2, ADR3 (Homo sapiens, UniProt P13945); assay: Binding assay ADR3 (reference Alprenolol); conditions: 100 nM
T2 construct: Eurofins Cerep (external service)

mGluR1 = target: T3, mGluR1 (Homo sapiens, UniProt Q13255); assay: Binding assay mGluR1; conditions: 100 nM
T3 construct: Eurofins Cerep (external service)

CXCR2 = target: T4, CXCR2 (Homo sapiens, UniProt P25025); assay: Binding assay CXCR2; conditions: 100 nM
T4 construct: Eurofins Cerep (external service)
T4 sequence (P25025 1-360): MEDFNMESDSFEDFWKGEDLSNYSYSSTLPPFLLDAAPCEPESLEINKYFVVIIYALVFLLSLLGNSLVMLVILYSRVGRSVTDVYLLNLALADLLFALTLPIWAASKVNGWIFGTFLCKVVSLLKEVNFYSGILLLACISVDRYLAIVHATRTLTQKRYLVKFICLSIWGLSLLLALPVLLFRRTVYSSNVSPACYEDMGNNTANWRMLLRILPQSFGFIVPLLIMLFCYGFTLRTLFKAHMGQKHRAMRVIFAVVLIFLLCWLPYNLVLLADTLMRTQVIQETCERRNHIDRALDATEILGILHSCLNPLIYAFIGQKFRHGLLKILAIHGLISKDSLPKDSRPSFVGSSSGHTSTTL

CCR8 = CCR8 (Homo sapiens, UniProt P51685); assay: Cellular functional assay CCR8
CXCR3 = target: T5, CXCR3 (Homo sapiens, UniProt P49682); assay: Cellular functional assay CXCR3
T5 sequence (P49682 1-368): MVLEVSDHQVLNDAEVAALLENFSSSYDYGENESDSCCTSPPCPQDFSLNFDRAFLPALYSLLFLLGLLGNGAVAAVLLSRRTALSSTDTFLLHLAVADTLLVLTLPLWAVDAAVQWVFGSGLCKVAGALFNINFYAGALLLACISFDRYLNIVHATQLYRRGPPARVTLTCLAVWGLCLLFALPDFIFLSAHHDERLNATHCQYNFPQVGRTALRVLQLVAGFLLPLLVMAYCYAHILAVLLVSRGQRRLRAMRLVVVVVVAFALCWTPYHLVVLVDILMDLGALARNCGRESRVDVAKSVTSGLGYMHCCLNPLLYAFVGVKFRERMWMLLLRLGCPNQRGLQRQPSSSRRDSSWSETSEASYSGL

CXCR4 = CXCR4 (Homo sapiens, UniProt P61073); assay: Cellular functional assay CXCR4
CXCR5 = target: T6, CXCR5 (Homo sapiens, UniProt P32302); assay: Cellular functional assay CXCR5
T6 sequence (P32302 1-372): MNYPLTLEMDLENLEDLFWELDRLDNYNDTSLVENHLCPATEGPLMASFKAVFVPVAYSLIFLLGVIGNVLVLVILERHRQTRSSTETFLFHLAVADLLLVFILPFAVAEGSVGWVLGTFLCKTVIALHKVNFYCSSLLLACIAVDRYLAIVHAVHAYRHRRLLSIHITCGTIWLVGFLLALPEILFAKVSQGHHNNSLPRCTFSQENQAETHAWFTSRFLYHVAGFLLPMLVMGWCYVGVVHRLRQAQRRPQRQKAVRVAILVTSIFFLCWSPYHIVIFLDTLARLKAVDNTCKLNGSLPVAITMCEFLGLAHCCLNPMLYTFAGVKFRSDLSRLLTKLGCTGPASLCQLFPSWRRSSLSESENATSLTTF

CX3CR1 = target: T7, CX3CR1 (Homo sapiens, UniProt P49238); assay: Cellular functional assay CX3CR1
T7 sequence (P49238 1-355): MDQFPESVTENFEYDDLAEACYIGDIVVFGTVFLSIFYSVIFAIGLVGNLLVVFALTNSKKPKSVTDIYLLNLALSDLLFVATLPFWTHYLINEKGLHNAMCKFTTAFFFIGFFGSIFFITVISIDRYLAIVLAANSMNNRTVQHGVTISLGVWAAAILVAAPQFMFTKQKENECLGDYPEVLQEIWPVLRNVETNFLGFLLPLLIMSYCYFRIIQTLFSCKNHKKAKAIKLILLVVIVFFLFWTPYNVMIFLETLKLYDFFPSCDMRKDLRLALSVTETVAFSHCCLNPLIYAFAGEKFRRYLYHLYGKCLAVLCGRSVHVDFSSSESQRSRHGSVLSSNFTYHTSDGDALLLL

[1] = mean of 2, read-out: % Of control specific binding, Mean
[2] = read-out: % Inhibition of control specific binding
[3] = single replicates 1 and 2, 0.1 µM
[4] = single replicates 1 and 2, read-out: % Of control specific binding
[5] = antagonist effect, 100 nM, single replicates 1st and 2nd, 0.1 µM
[6] = read-out: % Inhibition of control agonist response
[7] = read-out: Agonist Response (% of Control), Mean, antagonist effect, 100 nM, mean of 2
[8] = read-out: Agonist Response (% of Control), antagonist effect, 100 nM, single replicates 1st and 2nd

CXCR4, sequence (P61073 whole entry): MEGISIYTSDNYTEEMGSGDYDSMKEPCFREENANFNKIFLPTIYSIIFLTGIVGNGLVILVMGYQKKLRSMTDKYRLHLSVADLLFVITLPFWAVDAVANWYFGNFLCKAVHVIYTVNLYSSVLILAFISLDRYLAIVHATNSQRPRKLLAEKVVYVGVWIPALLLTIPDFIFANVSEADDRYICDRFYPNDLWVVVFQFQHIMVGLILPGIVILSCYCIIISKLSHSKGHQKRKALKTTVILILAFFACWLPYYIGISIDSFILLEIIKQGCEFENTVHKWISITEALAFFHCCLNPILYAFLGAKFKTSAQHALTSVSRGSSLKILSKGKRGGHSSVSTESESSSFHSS
CCR8, sequence (P51685 whole entry): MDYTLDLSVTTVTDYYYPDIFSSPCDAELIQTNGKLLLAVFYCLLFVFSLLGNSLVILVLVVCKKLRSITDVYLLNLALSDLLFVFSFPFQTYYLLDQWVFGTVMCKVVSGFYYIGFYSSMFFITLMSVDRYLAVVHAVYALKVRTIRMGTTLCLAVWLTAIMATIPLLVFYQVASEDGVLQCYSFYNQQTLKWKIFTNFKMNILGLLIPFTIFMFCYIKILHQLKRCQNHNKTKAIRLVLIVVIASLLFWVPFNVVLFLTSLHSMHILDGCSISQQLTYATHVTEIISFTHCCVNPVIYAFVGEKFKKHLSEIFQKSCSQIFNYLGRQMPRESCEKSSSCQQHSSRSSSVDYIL
T2 sequence (P13945 whole entry): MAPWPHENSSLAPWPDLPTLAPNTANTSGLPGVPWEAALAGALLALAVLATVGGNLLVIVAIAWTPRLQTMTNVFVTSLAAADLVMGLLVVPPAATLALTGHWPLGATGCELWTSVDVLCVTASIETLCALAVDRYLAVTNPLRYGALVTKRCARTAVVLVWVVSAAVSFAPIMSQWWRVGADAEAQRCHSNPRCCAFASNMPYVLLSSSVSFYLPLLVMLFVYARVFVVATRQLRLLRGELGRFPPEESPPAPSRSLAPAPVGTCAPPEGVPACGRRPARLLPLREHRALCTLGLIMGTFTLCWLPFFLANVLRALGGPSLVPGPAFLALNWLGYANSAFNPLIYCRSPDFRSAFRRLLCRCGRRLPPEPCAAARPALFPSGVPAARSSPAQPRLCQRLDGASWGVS
T3 sequence (Q13255 19-1194): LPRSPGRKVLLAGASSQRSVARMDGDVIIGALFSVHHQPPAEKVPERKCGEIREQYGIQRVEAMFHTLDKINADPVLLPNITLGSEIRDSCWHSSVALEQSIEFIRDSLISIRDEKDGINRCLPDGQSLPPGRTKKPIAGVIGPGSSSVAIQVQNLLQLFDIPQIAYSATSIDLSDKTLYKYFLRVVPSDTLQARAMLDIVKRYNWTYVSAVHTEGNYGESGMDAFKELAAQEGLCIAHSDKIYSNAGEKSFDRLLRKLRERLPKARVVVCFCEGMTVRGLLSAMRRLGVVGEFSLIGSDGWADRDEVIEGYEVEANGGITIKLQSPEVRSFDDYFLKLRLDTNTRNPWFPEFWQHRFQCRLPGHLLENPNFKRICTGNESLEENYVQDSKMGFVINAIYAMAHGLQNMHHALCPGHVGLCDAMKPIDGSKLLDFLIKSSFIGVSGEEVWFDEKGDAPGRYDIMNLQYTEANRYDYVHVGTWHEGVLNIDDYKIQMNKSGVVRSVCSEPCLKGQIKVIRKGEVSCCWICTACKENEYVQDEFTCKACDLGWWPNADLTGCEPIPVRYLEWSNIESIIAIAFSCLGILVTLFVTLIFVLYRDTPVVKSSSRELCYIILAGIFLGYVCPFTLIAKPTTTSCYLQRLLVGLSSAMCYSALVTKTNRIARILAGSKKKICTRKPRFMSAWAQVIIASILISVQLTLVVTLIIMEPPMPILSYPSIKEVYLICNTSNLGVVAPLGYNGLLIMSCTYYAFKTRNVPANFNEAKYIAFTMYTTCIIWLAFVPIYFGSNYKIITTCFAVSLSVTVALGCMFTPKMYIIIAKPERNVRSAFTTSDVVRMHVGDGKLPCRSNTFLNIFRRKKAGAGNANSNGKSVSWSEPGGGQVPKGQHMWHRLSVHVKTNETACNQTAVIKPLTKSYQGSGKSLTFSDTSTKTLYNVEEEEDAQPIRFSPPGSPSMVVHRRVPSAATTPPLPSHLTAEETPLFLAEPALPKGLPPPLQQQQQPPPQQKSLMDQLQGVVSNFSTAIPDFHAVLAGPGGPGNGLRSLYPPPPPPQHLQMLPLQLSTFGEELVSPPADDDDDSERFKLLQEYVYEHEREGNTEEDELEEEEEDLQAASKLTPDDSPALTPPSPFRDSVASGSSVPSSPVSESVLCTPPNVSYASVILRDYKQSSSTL

In the case of `Cc1ccc(-c2nnc(SCC(=O)Nc3nccs3)[nH]2)cc1` [Compound 9], the remaining activity at 0.1 µM (ADR1B; [1]) is reported as 89.8%, the inhibition at 0.1 µM (ADR1B; [2]) is reported as 10% and the “% Of control specific binding” value (ADR1B; [3]) is reported as 100.1% and 79.4%. For the same compound, the remaining activity at 0.1 µM (ADR3; [1]) was 99.1%, the inhibition at 0.1 µM (ADR3; [2]) was 1% and the “% Of control specific binding” value (ADR3; [3]) was 95.7%. For the same compound, the remaining activity at 0.1 µM (ADR3; [4]) was 102%, the remaining activity at 0.1 µM (mGluR1; [1]) was 114% and the inhibition at 0.1 µM (mGluR1; [2]) was -14%. The “% Of control specific binding” value (mGluR1; [3]) was 103.5% and 124.2%, the remaining activity at 0.1 µM (CXCR2; [1]) was 97.3% and the inhibition at 0.1 µM (CXCR2; [2]) was 3%. The “% Of control specific binding” value (CXCR2; [3]) was 98.7%, the remaining activity at 0.1 µM (CXCR2; [4]) was 96% and the “Agonist Response (% of Control)” value (CCR8; [5]) was 116.9% and 80.2%. For the same compound, the inhibition at 0.1 µM (CCR8; [6]) was 2%, the activity at 0.1 µM (CCR8; [7]) was 98.5% and the “Agonist Response (% of Control)” value (CXCR3; [5]) was 102.1%. It also gave an inhibition at 0.1 µM (CXCR3; [6]) of 0.3%, an activity at 0.1 µM (CXCR3; [7]) of 102% and an activity at 0.1 µM (CXCR3; [8]) of 103%. For the same compound, the “Agonist Response (% of Control)” value (CXCR4; [5]) was 70.8%, the inhibition at 0.1 µM (CXCR4; [6]) was 4.4% and the activity at 0.1 µM (CXCR4; [7]) was 78.2%. For the same compound, the activity at 0.1 µM (CXCR4; [8]) was 85.6%, the “Agonist Response (% of Control)” value (CXCR5; [5]) was 99.7% and the inhibition at 0.1 µM (CXCR5; [6]) was 1.2%. For the same compound, the activity at 0.1 µM (CXCR5; [7]) was 102%, the activity at 0.1 µM (CXCR5; [8]) was 103% and the “Agonist Response (% of Control)” value (CX3CR1; [5]) was 105.4%. The inhibition at 0.1 µM (CX3CR1; [6]) was 0.2%, the activity at 0.1 µM (CX3CR1; [7]) was 107% and the activity at 0.1 µM (CX3CR1; [8]) was 110%.
